Source: patent EP3558896B1, “USE OF ARYL S[…] TRIAMIDE UREASE INHIBITORS WITH PHOSPHORUS-[…] FERTILIZERS” (BASF SE, priority 2016, dated 2018)

Test: Decomposition of urease inhibitors on treated urea granules mixed with triple super phosphate (TSP) granules
Format: physicochemical
Settings: after one day in the absence of TSP granules

SMILES | decomposition of the urease inhibitors
CCCCNP(N)(N)=S [NBPT, N-n-butylthiophosphoric acid triamide] | no decomposition
CCCNP(N)(N)=S [NPPT, N-n-propylthiophosphoric acid triamide] | no decomposition
